Laboratory results as given in patent publication EP4268824A1 (Manros Therapeutics, priority 2022, dated 2023).

Key:
F508del-CFTR = target: T1, F508del-CFTR (Homo sapiens, UniProt P13569, DEL508-508); assay: CFTR activation assay: short-circuit current measurements (Ussing chamber) in CFBE cells treated 24 h with CFTR modulator(s) plus compound; type: cell-based; conditions: for F508del-CFTR activity ('inhibition shift' induced by CFTR-172) in reference to the CFTR activity induced by Trikafta® alone (value=100): substance with R1 = [drawing 9], CFBE cells, with Trikafta®
T1 construct: expressed in transfected cells; host or cells: CFBE41o- cells (CFBE F508del-CFTR), puromycin-selected
T1 sequence (P13569 with tags, fused parts or gaps DEL508-508): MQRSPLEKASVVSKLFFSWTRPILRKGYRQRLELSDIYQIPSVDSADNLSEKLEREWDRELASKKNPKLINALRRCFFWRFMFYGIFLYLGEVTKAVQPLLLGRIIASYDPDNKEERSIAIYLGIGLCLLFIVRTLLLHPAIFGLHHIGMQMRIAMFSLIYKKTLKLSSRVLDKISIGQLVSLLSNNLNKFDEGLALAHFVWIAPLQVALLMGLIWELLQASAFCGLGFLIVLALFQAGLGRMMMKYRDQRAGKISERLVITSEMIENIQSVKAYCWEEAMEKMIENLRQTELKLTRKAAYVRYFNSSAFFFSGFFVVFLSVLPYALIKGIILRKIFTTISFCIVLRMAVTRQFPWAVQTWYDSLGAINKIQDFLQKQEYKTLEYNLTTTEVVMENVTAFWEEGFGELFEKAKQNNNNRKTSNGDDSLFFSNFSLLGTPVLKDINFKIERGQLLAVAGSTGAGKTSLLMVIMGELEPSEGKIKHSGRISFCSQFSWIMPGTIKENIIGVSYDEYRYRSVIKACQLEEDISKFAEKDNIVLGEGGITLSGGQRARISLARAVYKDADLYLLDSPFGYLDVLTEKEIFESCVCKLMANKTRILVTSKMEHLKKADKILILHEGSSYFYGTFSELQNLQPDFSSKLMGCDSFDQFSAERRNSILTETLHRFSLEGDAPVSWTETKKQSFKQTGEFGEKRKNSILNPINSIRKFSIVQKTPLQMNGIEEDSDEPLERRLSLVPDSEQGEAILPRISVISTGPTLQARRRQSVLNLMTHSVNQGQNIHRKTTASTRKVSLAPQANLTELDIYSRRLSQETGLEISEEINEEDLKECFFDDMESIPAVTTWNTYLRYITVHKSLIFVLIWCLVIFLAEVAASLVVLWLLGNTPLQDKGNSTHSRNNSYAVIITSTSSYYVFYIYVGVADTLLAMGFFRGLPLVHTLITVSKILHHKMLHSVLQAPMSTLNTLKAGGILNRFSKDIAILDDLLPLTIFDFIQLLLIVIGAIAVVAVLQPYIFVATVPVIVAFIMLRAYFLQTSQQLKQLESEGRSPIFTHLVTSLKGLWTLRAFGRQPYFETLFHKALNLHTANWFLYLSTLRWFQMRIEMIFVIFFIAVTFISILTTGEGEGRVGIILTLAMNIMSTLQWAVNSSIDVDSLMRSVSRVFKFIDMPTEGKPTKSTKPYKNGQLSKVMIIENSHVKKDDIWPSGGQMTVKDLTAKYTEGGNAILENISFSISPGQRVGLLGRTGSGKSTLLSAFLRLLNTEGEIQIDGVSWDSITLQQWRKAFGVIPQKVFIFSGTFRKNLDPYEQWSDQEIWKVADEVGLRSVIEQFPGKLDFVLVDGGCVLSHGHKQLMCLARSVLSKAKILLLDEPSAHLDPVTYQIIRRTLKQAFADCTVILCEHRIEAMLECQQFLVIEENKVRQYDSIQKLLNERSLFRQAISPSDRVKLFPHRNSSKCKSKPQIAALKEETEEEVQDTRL
Experimental: • FIG 1. represents the conductance measurement as a function of time for assessing the activity of F508del-CFTR in CFBE cells using the Ussing chamber as set forth in example 13. Cells are incubated for 24 hours with either Trikafta® alone or Trikafta® + a compound of formula (I) as defined herein after. Conductance is measured as a function of time. […] This is the measure which are reported in all Tables shown below. • FIG 2. The correcting effect of Trikafta® on F508del-CFTR in a pulmonary epithelial cell line derived from a F508del-CFTR CF patient was tested as set forth in example 13 herein after in the presence of increasing concentrations of compound (44) as defined herein after and compound (107) as defined herein after. Dose-response curves were built from the activation and inhibition data (see FIG. 1). 100% represents the activity of Trikafta® alone. • FIG 3. […] CFE cells were treated with Trikafta® 100%, 33%, or 11%, in the absence or presence of 1 µM of compound (107). F508del-CFTR activity was monitored as described in the Experimental section and above. Activity is reported as percentage of δF508del-CFTR activity in the presence of Trikafta® alone (100%). The fold change over the activity of Trikafta® alone is indicated in parentheses. • FIG 4. The correcting effect of further CFTR modulators than Trikafta®, i.e. Galapagos compounds as defined herein after (GLPG 222 (G1), GLPG 1837 (G2), GLPG 2451 (G3)) (1 µM each) on F508del-CFTR in a pulmonary epithelial cell line derived from a F508del-CFTR CF patient was tested as set forth in example 13 herein after in the presence of increasing concentrations of compound (107) as defined herein after. Dose-response curves were built from the activation and inhibition data (see FIG. 1). 100% represents the activity of each CFTR modulator alone.
The activity of F508del-CFTR was indeed estimated according to the method described below in example 13. This method makes use of CFBE cells, an immortalized cell line generated from bronchial epithelium of a CF patient homozygous for F508del-CFTR [Kunzelmann, K. et al., 1993. An immortalized cystic fibrosis tracheal epithelial cell line homozygous for the F508del CFTR mutation. Am. J. Respir. Cell Mol. Biol. 8, 522-529.]. Cells are exposed for 24 hours to a combination of Trikafta® and a compound of formula (I) as defined herein after to be evaluated, and the activity of F508del-CFTR is measured by conductance in a Ussing chamber. The activation is initiated by addition of Forskolin (1 µM). […] All compounds tested were evaluated in combination with Trikafta®. In most instances, compounds were tested in triplicates at 0.1, 1 and 10 µM.
Wild-type CFBE cells (containing full-length, unmutated CFTR) are used as a reference.
F508del-CFTR expressing cells used in this present study were treated with CFTR modulators 24 h prior the experiments. The following CFTR modulators were used: Vx770 (Ivacaftor) (Selleckchem, S 1144) (Selleckchem, 24, rue des Tuileries, BP684, 67460 Souffelweyersheim, France), Vx445 (Elexacaftor) (Selleckchem, SE-S8851), Vx661 (Tezacaftor) (TargetMol, HY-15448) (TargetMol, Tebu-bio, 39 rue de Houdan, BP 15, 78612 Le-Perray-en-Yvelines cedex, France). Trikafta® is the combination of 1 µM Vx770, 3 µM Vx 445 and […] Vx661.
CFBE cell line stably expressing F508del-CFTR or WT-CFTR (CFBE WT-CFTR) were grown at 37°C in 5% CO2 - 95% air and media was replaced every 2 days.

CLK4 = CLK4 (Homo sapiens, UniProt Q9HAZ1); assay: Kinase inhibition, dose-response; type: biochemical
Chain of CLK4 (Q9HAZ1 whole entry, species assumed): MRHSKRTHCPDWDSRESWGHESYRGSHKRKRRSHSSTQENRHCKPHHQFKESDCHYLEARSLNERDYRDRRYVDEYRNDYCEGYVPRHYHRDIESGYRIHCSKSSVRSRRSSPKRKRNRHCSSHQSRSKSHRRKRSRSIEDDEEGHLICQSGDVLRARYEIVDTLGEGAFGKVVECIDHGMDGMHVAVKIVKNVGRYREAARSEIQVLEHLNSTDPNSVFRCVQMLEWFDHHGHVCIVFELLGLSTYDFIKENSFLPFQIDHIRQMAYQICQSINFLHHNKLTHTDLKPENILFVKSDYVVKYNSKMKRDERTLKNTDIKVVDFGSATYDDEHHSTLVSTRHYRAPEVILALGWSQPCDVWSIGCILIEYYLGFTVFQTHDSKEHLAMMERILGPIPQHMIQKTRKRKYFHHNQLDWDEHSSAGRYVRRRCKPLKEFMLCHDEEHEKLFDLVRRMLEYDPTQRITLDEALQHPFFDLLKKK
From the text: All compounds were additionally tested over a range of concentrations for their ability to inhibit a series of 14 kinases. […] Their F508del-CFTR activity is reported as percentage of F508del-CFTR activity in the presence of Trikafta alone (100%).

CK1γ2 = CK1γ2 (Homo sapiens, UniProt P78368); assay: Kinase inhibition, dose-response; type: biochemical; conditions: > 10: no inhibition at 10 µM, the highest dose tested
Experimental: (§1) All compounds were additionally tested over a range of concentrations for their ability to inhibit a series of 14 kinases. IC50 values were calculated from the dose-response curves and are reported in µM. > 10, no inhibition at 10 µM, the highest dose tested (see table 6 below). [drawing 409] Table 5: CFE cells were treated with Trikafta in the presence of increasing concentrations of various compounds and their N7-methylated counterparts. Their F508del-CFTR activity is reported as percentage of F508del-CFTR activity in the presence of Trikafta alone (100%).

DYRK1A = DYRK1A (Homo sapiens, UniProt Q13627); assay: Kinase inhibition, dose-response; type: biochemical; conditions: > 10: no inhibition at 10 µM, the highest dose tested
Experimental: as §1

CK1α1 = CK1α1 (Homo sapiens, UniProt P48729); assay: Kinase inhibition, dose-response; type: biochemical; conditions: > 10: no inhibition at 10 µM, the highest dose tested
Experimental: as §1

CDK9 = CDK9 (Homo sapiens, UniProt P50750); assay: Kinase inhibition, dose-response; type: biochemical; conditions: > 10: no inhibition at 10 µM, the highest dose tested
Chain of CDK9 (P50750 whole entry, species assumed): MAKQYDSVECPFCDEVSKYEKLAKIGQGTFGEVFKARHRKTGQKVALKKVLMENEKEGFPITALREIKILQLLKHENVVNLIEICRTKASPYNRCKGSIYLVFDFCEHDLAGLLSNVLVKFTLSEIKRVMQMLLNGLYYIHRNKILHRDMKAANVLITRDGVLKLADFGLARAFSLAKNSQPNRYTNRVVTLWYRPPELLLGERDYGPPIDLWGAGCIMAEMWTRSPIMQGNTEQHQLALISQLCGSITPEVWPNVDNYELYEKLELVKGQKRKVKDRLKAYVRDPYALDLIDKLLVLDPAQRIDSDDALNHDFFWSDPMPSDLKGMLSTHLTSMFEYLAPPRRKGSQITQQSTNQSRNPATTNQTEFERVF
Chain of CDK9 (O60563 whole entry partner, species assumed): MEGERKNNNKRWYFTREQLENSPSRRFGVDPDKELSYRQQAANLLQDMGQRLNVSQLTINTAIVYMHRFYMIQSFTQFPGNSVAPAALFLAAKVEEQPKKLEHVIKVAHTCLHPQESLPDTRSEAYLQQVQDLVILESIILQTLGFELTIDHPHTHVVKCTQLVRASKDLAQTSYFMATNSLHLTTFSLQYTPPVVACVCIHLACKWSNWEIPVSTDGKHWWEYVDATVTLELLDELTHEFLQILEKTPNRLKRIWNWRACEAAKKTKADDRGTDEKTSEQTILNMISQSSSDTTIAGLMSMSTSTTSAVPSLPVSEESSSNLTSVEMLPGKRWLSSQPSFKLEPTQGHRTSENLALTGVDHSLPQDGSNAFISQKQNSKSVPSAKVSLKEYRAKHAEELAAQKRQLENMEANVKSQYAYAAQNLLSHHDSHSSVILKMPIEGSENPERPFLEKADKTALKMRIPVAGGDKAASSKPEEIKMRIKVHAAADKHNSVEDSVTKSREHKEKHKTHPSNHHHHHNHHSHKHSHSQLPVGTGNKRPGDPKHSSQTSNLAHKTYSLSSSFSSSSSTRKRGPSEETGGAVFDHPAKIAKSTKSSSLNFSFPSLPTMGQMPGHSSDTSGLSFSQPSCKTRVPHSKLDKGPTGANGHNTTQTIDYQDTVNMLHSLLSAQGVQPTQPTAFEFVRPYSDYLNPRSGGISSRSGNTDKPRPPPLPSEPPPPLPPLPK
Experimental: as §1

CK1δ = CK1δ (Homo sapiens, UniProt P48730); assay: Kinase inhibition, dose-response; type: biochemical; conditions: > 10: no inhibition at 10 µM, the highest dose tested
Experimental: as §1

CLK3 = CLK3 (Homo sapiens, UniProt P49761); assay: Kinase inhibition, dose-response; type: biochemical; conditions: > 10: no inhibition at 10 µM, the highest dose tested
Experimental: as §1

CLK2 = CLK2 (Homo sapiens, UniProt P49760); assay: Kinase inhibition, dose-response; type: biochemical; conditions: > 10: no inhibition at 10 µM, the highest dose tested
Chain of CLK2 (P49760 whole entry, species assumed): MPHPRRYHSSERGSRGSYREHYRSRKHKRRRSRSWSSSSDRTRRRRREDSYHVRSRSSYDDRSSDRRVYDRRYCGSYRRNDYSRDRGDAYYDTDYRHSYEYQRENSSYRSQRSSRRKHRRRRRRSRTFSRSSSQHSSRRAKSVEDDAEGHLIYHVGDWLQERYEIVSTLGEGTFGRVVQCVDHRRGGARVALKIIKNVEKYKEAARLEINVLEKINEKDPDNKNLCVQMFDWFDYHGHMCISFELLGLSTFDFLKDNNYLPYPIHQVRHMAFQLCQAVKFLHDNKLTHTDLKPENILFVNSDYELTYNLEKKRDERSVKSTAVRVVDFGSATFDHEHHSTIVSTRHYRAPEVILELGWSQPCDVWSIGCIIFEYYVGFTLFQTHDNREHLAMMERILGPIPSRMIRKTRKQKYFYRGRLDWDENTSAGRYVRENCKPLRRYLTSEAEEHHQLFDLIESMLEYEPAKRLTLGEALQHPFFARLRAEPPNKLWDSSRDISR
Experimental: as §1

CLK1 = CLK1 (Homo sapiens, UniProt P49759); assay: Kinase inhibition, dose-response; type: biochemical; conditions: > 10: no inhibition at 10 µM, the highest dose tested
Experimental: as §1

CK1ε = CK1ε (Homo sapiens, UniProt P49674); assay: Kinase inhibition, dose-response; type: biochemical; conditions: > 10: no inhibition at 10 µM, the highest dose tested
Chain of CK1ε (P49674 whole entry): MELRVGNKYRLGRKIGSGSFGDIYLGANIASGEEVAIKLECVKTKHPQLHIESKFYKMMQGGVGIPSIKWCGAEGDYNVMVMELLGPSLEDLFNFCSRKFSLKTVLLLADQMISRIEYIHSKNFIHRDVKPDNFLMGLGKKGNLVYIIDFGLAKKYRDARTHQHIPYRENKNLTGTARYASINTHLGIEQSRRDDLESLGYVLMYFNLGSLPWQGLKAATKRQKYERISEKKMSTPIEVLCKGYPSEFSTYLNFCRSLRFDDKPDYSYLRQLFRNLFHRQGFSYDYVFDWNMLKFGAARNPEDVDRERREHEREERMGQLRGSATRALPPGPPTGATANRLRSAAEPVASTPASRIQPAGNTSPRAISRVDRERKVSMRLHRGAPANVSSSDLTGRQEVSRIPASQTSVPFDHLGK
Experimental: as §1

CK1γ3 = CK1γ3 (Homo sapiens, UniProt Q9Y6M4); assay: Kinase inhibition, dose-response; type: biochemical; conditions: > 10: no inhibition at 10 µM, the highest dose tested
Chain of CK1γ3 (Q9Y6M4 whole entry): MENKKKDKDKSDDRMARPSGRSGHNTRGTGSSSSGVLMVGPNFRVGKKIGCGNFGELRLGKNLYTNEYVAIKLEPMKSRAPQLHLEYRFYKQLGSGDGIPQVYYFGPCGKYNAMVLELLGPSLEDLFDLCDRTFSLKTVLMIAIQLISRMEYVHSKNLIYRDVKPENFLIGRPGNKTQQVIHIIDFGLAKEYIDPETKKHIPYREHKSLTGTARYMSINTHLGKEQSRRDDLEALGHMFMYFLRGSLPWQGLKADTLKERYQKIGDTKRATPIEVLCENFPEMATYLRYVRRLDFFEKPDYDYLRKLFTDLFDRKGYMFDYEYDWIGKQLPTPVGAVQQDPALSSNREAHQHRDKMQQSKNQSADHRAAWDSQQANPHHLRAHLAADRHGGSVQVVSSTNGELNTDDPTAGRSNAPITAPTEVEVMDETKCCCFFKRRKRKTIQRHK
Experimental: as §1

CDK7 = CDK7 (Homo sapiens, UniProt P50613); assay: Kinase inhibition, dose-response; type: biochemical; conditions: > 10: no inhibition at 10 µM, the highest dose tested
Experimental: as §1

CK1γ1 = CK1γ1 (Homo sapiens, UniProt Q9HCP0); assay: Kinase inhibition, dose-response; type: biochemical; conditions: > 10: no inhibition at 10 µM, the highest dose tested
Chain of CK1γ1 (Q9HCP0 whole entry): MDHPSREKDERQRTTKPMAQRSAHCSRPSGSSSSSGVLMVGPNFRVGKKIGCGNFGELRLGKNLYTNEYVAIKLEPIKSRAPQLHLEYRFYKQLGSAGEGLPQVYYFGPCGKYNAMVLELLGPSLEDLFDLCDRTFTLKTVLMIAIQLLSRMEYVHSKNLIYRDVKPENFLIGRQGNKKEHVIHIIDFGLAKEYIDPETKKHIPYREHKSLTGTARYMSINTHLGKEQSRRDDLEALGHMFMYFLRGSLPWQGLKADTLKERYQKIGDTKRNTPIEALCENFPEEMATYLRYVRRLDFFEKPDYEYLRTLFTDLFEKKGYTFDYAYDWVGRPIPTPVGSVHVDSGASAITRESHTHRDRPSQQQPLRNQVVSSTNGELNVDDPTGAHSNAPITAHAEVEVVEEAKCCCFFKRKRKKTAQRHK
Experimental: as §1

CDK2 = CDK2 (Homo sapiens, UniProt P24941); assay: Kinase inhibition, dose-response; type: biochemical; conditions: > 10: no inhibition at 10 µM, the highest dose tested
Experimental: as §1

LogD determined by HPLC = type: physicochemical

For CC(C)n1cnc2c(NCc3ccccc3)cc(N[C@@H]3CCOC3)nc21 [(A), reference compound], the “F508del-CFTR activity ('inhibition shift' induced by CFTR-172) in reference to the CFTR activity induced by Trikafta® alone (value=100)” value (F508del-CFTR; C 0.1 µM) was 82.7, the “F508del-CFTR activity ('inhibition shift' induced by CFTR-172) in reference to the CFTR activity induced by Trikafta® alone (value=100)” value (F508del-CFTR; C 1 µM) was 107.8 and the “F508del-CFTR activity ('inhibition shift' induced by CFTR-172) in reference to the CFTR activity induced by Trikafta® alone (value=100)” value (F508del-CFTR; C 10 µM) was 114.5.
With CC(C)c1cnn2c(NCc3ccccc3)nc(N[C@@H]3CCOC3)nc12 [(C), reference compound] the “F508del-CFTR activity ('inhibition shift' induced by CFTR-172) in reference to the CFTR activity induced by Trikafta® alone (value=100)” value (F508del-CFTR; C 0.1 µM) was 109.7, the “F508del-CFTR activity ('inhibition shift' induced by CFTR-172) in reference to the CFTR activity induced by Trikafta® alone (value=100)” value (F508del-CFTR; C 1 µM) was 99.5 and the “F508del-CFTR activity ('inhibition shift' induced by CFTR-172) in reference to the CFTR activity induced by Trikafta® alone (value=100)” value (F508del-CFTR; C 10 µM) was 116.1.
For CC(C)c1cnn2c(NCc3ccccc3)cc(N[C@@H]3CCOC3)nc12 [(D), reference compound], the “F508del-CFTR activity ('inhibition shift' induced by CFTR-172) in reference to the CFTR activity induced by Trikafta® alone (value=100)” value (F508del-CFTR; C 0.1 µM) was 98.0, the “F508del-CFTR activity ('inhibition shift' induced by CFTR-172) in reference to the CFTR activity induced by Trikafta® alone (value=100)” value (F508del-CFTR; C 1 µM) was 110.1 and the “F508del-CFTR activity ('inhibition shift' induced by CFTR-172) in reference to the CFTR activity induced by Trikafta® alone (value=100)” value (F508del-CFTR; C 10 µM) was 98.7.
For CC(C)c1cnc2c(NCc3ccccc3)nc(NC3CCOCC3)nn12 [compound 44], the IC50 (CLK4) was 0.58 µM, the IC50 (CK1γ2) was greater than 10 µM and the IC50 (DYRK1A) was 6.53 µM. The IC50 (CK1α1) was greater than 10 µM, the IC50 (CDK9) was 1.17 µM and the IC50 (CK1δ) was 0.626 µM. It also gave an IC50 (CLK3) greater than 10 µM, an IC50 (CLK2) of 0.493 µM and an IC50 (CLK1) of 0.537 µM. For the same molecule, the IC50 (CK1ε) was 1.73 µM, the IC50 (CK1γ3) was greater than 10 µM and the IC50 (CDK7) was 0.207 µM. For the same molecule, the IC50 (CK1γ1) was greater than 10 µM and the IC50 (CDK2) was 0.579 µM.
With CC(C)c1cnc2c(NCc3ccccc3)nc(NCCC3CCCN3C)nn12 (centres unmarked) [compound 106, N4-Benzyl-7-isopropyl-N2-[2-(1-methylpyrrolidin-2-yl)ethyl]imidazo[2,1-f][1,2,4]triazine-2,4-diamine] the chromatographic logD (LogD determined by HPLC) was 2.16.
In the case of CC(C)c1cnc2c(NCc3ccccc3)nc(Nc3ccnn3C)nn12 [compound 107, N4-Benzyl-7-isopropyl-N2-(2-methylpyrazol-3-yl)imidazo[2,1-f][1,2,4]triazine-2,4-diamine], the chromatographic logD (LogD determined by HPLC) is reported as 2.98 and the “F508del-CFTR activation with diluted Trikafta®” value (F508del-CFTR; Trikafta® 100%, 33% or 11%, absence or presence of 1 µM compound, FIG 3) is reported as “compensates the dilution of Trikafta®”.
In the case of CC(C)c1cnc2c(NCc3ccccc3)nc(Nc3nccn3C)nn12 [compound 109, N4-Benzyl-7-isopropyl-N2-(1-methylimidazol-2-yl)imidazo[2,1-f][1,2,4]triazine-2,4-diamine], the chromatographic logD (LogD determined by HPLC) is reported as 3.12.
CC(C)c1cnc2c(NCc3ccccc3)nc(Nc3cnn(C)c3)nn12 [compound 110, N4-Benzyl-7-isopropyl-N2-(1-methylpyrazol-4-yl)imidazo[2,1-f][1,2,4]triazine-2,4-diamine] showed a chromatographic logD (LogD determined by HPLC) of 2.89.
With CC(C)c1cnc2c(NCc3ccccc3)nc(Nc3ccccc3)nn12 [compound 114, N4-Benzyl-7-isopropyl-N2-phenyl-imidazo[2,1-f][1,2,4]triazine-2,4-diamine] the chromatographic logD (LogD determined by HPLC) was 4.64.
Work on CC(C)c1cnc2c(NCc3ccccc3)nc(NCc3cnn(C)c3)nn12 [compound 115, N4-Benzyl-7-isopropyl-N2-[(1-methylpyrazol-4-yl)methyl]imidazo[2,1-f][1,2,4]triazine-2,4-diamine] yielded a chromatographic logD (LogD determined by HPLC) of 2.98.
Molecule CC(C)c1cnc2c(NCc3ccccc3)nc(NCc3nccn3C)nn12 [compound 116, N4-Benzyl-7-isopropyl-N2-[(1-methylimidazol-2-yl)methyl]imidazo[2,1-f][1,2,4]triazine-2,4-diamine] has a chromatographic logD (LogD determined by HPLC) of 2.49.
CC(C)c1cnc2c(NCc3ccccc3)nc(NCc3ccccc3)nn12 [compound 121, N2,N4-Dibenzyl-7-isopropyl-imidazo[2,1-f][1,2,4]triazine-2,4-diamine] showed a chromatographic logD (LogD determined by HPLC) of 4.6.
Work on CC(C)c1cnc2c(NCc3ccccc3)nc(NCc3ccc(F)cc3)nn12 [compound 122, N4-Benzyl-N2-[(4-Fluorophenyl)methyl]-7-isopropyl-imidazo[2,1-f][1,2,4]triazine-2,4-diamine] yielded a chromatographic logD (LogD determined by HPLC) of 4.64.
Work on CC(C)c1cnc2c(NCc3ccccc3)nc(NCc3ccccn3)nn12 [compound 123, N4-Benzyl-7-isopropyl-N2-(2-pyridylmethyl)imidazo[2,1-f][1,2,4]triazine-2,4-diamine] yielded a chromatographic logD (LogD determined by HPLC) of 3.26.
Work on CC(C)c1cnc2c(NCc3ccccc3)nc(NCc3cccnc3)nn12 [compound 124, N4-Benzyl-7-isopropyl-N2-(3-pyridylmethyl)imidazo[2,1-f][1,2,4]triazine-2,4-diamine] yielded a chromatographic logD (LogD determined by HPLC) of 3.12.
With CC(C)c1cnc2c(NCc3ccccc3)nc(NCc3ccncc3)nn12 [compound 125, N4-Benzyl-7-isopropyl-N2-(4-pyridylmethyl)imidazo[2,1-f][1,2,4]triazine-2,4-diamine] the chromatographic logD (LogD determined by HPLC) was 3.07.
Cc1cnc(CNc2nc(NCc3ccccc3)c3ncc(C(C)C)n3n2)cn1 [compound 126] showed a chromatographic logD (LogD determined by HPLC) of 3.
With Cc1cc(C)nc(CNc2nc(NCc3ccccc3)c3ncc(C(C)C)n3n2)n1 [compound 127, N4-Benzyl-N2-[(4,6-dimethylpyrimidin-2-yl)methyl]-7-isopropyl-imidazo[2,1-f][1,2,4]triazine-2,4-diamine] the chromatographic logD (LogD determined by HPLC) was 3.28.
